Entries after “also recorded” stand apart in the source; their conditions may differ. Read-outs that look alike come from different tables or passages of the source.
Experiments:
PG formation = details: cited from earlier work
[1] = cited from earlier work
NZB/W mouse = test: NZB/W mouse, animal model for Sjogren's syndrome; type: in vivo
Sjogren's syndrome = details: vitamin C 7.5 g/day for a year; person
Experimental: Associated with these disorders were brittle, frequently cracking nails and hypersensitivity of the hands to soaps and detergents. […] 50 mg/day pyridoxine (desirable for normal EFA metabolism) and 6×0.6 ml Evening Primrose oil capsules per day were added to the regime.

[2] = system: conversion of DGLA to 1 series PGs (human platelets); test: tissue or blood; type: cell-based; details: for effect on formation of 1 series PGs from DGLA: human platelets; for activity at 0.018 µg/mL / activity at 18 µg/mL: Homo sapiens, Platelet; for behaviour of treated normal platelets (PGE1 from DGLA): normal platelets compared with schizophrenic platelets
Experimental: (§1) The method is given in detail later herein but briefly human platelets are incubated with radioactive DGLA or arachidonic acid. The PGs produced during incubation are extracted by conventional means and separated by thin layer chromatography, and the amount of radioactivity appearing in each PG or related substance is counted. PGE 1, PGF 1α and thromboxane B1 from DGLA, and PGE 2, PGF 2α and thromboxane B2 from AA are estimated.
(§2) One day expired (2 days old) human platelets were obtained and used within 48 hours of expiration. One unit was centrifuged at 1000 g for 15 minutes and the supernatent drawn off. The platelet pellet was resuspended in Tris-NaCl-EDTA buffer, made up of 0.15 M NaCl, 0.15 M Tris HCl at pH 7.4 and 0.077 M NaEDTA (90:8:2 v/v/v). The platelets were recentrifuged, the supernatant removed and the pellet resuspended in Krebs-Henseleit buffer (without calcium) at pH 7.4. The washed platelets suspension contained about 1-2% red blood cells. All glassware used in the preparation of the platelets was siliconized.
Four equal sized 1 ml aliquots of the platelet suspension, containing 10^9 platelets/ml were incubated with e.g. 0.5 μCi ^14 C-DGLA for five minutes. At the beginning of the incubation the material under test was added to the suspensions. The reaction was stopped after five minutes by addition of 1/10 volume of 10% formic acid. The suspension was then extracted three times with ethyl acetate and the fractions pooled and dried under vacuum. The extract was then taken up with 5 ml chloroform/methanol (2/1, v/v). Recovery of radioactive material in the extract was checked by taking 50 μl of the chloroform/methanol and counting by liquid scintillation.
The chloroform/methanol extract was then reduced in volume to 1 ml under dry prepurified nitrogen. Thin layer chromatography was carried out on 500 μg precoated, prescored silica gel G Uniplates (Analtech). Plates were activated by heating to 100° C. for 1 hour immediately prior to use. The solvent system was chloroform:methanol:acetic acid:water (90:8:1:0:8). Reference compounds (PGsE1 and F1α and thromboxane B1) were run at the same time and visualized by phosphomolybdic acid spray followed by brief heating. The bands on the plates corresponding to the reference PGE1, PFG1α and TXB1 were scraped off and eluted with 20 ml acetone. Each elution was then evaporated to dryness and counted by liquid scintillation (Beckman 100 LS counter).
Three experiments were performed with DGLA and three with AA.

opiate receptor = details: cited from earlier work
[3] = system: conversion of AA to 2 series PGs (human platelets); type: cell-based
Experimental: as §1, §2
Four equal sized 1 ml aliquots of the platelet suspension, containing 10^9 platelets/ml were incubated with e.g. 0.5 μCi ^14 C-DGLA for five minutes. […]
The chloroform/methanol extract was then reduced in volume to 1 ml under dry prepurified nitrogen. […] Each elution was then evaporated to dryness and counted by liquid scintillation (Beckman 100 LS counter). […]

[4] = read-out: PGE1 formation (precursor DGLA), percentage of control counts
[5] = read-out: TXB1 formation (precursor DGLA), percentage of control counts

In the case of CCO [Ethyl alcohol, ethyl alcohol], the “effect on formation of thromboxane B2” value (PG formation; extremely high levels of ethanol, conversion of AA) is given as “can block the formation of thromboxane B2”, the “concentration of alcohol in human plasma at which signs of mild intoxication first appear” value ([1]; human plasma) is given as 20-30 mg % and the “concentration which produces "blind drunkenness"” value ([1]; in vivo) is given as 300 mg %.

For CCCCC[C@H](O)/C=C/[C@H]1[C@H](O)CC(=O)[C@@H]1CCCCCCC(=O)O [PGE1], the “effect on immunological abnormalities of the strain” value (NZB/W mouse) was “can correct many of the immunological abnormalities of the strain”.

In the case of O=C1O[C@H]([C@@H](O)CO)C(O)=C1O [Vitamin C, ascorbic acid], the “effect on well-being, dry eyes and mouth” value (Sjogren's syndrome) is given as “subjective sense of well-being and some slight improvement in the dry eyes and mouth” and the “effect on PG formation” value (PG formation; high concentrations of vitamin C, reports in the literature) is given as “both enhancing and reducing PG formation”.

In the case of CN1CC[C@@]23CCCC[C@@H]2[C@@H]1Cc1ccc(O)cc13 [d-levorphanol], the “effect on conversion of DGLA to PGE1” value ([2]; d-isomer of levorphanol) is listed as “no such effect”, the “effect on formation of 1 series PGs from DGLA” value (from here on “effect on formation … from DGLA”) [2] is listed as “not shown by d-levorphanol” and the “binding to and activation of the opiate receptor” value (“binding to and activation” below) (opiate receptor) is listed as “does not”. For the same molecule, the “binding to and activation” value (opiate receptor; listed as d-isomer of levorphanol) was “devoid of opiate activity”.

For CN1CC[C@]23CCCC[C@H]2[C@H]1Cc1ccc(O)cc13 [l-levorphanol], the activity at 0.018 µg/mL [2, 4] was 23%, the activity at 18 µg/mL [2, 4] was 72% and the activity at 0.018 µg/mL [2, 5] was 20%. For the same molecule, the activity at 18 µg/mL [2, 5] was 76%, the “effect on formation … from DGLA” value [2] was “reduced formation of 1-series PGs; also recorded: able to block the formation of 1 series PGs from DGLA” and the “effect on conversion of DGLA to PGE1” value ([2]; l-levorphanol 100 μg/ml) was “inhibiting conversion of DGLA to PGE1”. The “behaviour of treated normal platelets (PGE1 from DGLA)” value [2] was “behave like schizophrenic platelets”, the “imitation of schizophrenic defect of conversion of DGLA to PGE1 in normal platelets” value ([2]; normal platelets incubated with l-levorphanol) was “can be limited in normal platelets by incubation with l-levorphanol” and the “effect on formation of 2 series PGs from AA” value [3] was “no effect on production of 2-series PGs from AA; also recorded: without blocking the formation of 2 series PGs from AA”. The “binding to and activation” value (opiate receptor) was “binds to and activates the opiate receptor”.

With CCCCC/C=C\C/C=C\C/C=C\CCCCC(=O)O [γ-linolenic acid] the “effect on immunological abnormalities of the strain” value (NZB/W mouse) was “can correct many of the immunological abnormalities of the strain”.

For “β-endorphin: natural opioid (YGGFMTSEKSQTPLVTLFKNAIIKNAYKKGE; Beta-endorphin; UniProt P01189 237-267, looked up)”, the “effect on formation … from DGLA” value [2] was “effect similar to levorphanol” and the “behaviour of treated normal platelets (PGE1 from DGLA)” value [2] was “behave like schizophrenic platelets”.

Source: USRE31836E, “Pharmaceutical and dietary composition” (priority 1984, dated 1985)
